Source: patent US20230331679A1, “NAPHTHALENE MONOIMIDE COMPOUNDS AND METHODS THEREOF” (JAWAHARLAL NEHRU CENTRE FOR ADVANCED SCIENTIFIC RESEARCH, priority 2020, published 2023)

How the values were obtained:
Aβ42 fibrils = molecular target: T1, Aβ42 fibrils (Homo sapiens, UniProt P05067); assay: TEM visualization of Aβ42 aggregation species; assay type: biochemical; conditions: 10 µM Aβ42, 50 µM TGR63, 48 h
T1 construct: commercially available β-amyloid peptide (1-42), human; purchased marck (so in the source) PP69-.025 mg
Description: To visualize the amyloid fibrils, the 10 µM of Aβ42 peptides were incubated alone, and in combination with 50 µM TGR63 for 48 h and spotted on mica surface and TEM grid to acquire the TEM images. FIG. 4(a) and FIG. 4(b) show the TEM images of Aβ42 aggregation species in the absence and presence of TGR63 respectively.

α-Syn = α-Syn (Homo sapiens, UniProt P37840); assay: ThT binding assay, α-Syn aggregation inhibition; assay type: biochemical
Source text: Parkinson’s disease (PD) is a neuronal disorder, mainly affects the motor system. α-Syn is a presynaptic neuronal protein that is linked neuropathologically to PD plays a vital role in the pathogenesis in a number of ways. Self-aggregation of α-Syn to form fibrillar aggregates and these toxic species mediate disruption of cellular homeostasis and cause neuronal death. These toxic aggregates affect various intracellular targets, especially synaptic function. In this context, NMI compounds of the present disclosure were used to study the possible modulation of α-Syn aggregation. The effect of NMI compounds (TGR63 and TGR64) on α-syn (100 µM) aggregation inhibition was studied through ThT binding assay. Experiments were performed at stoichiometric ratios (α-Syn:inhibitor) of 1:1, 1:2, and 1:5 with the fixed concentration of α-Syn at 100 µM.

WT mice = assay: LD50 by intraperitoneal injection (OECD guidelines); assay type: in vivo; conditions: IP injection, survival monitored 14 days
Description: (§1) Pharmacokinetics of TGR63 in wild-type (WT) mice was performed to assess its in vivo efficacy. The lethal dose 50 (LD50) of TGR63 was determined in WT mice through intraperitoneal (IP) injection following the Organisation for Economic Cooperation and Development (OECD) guidelines. […] FIG. 7A illustrates the calculation of lethal dose 50% (LD50) of TGR63 through intraperitoneal administration and is represented as table of experimental details and the final observation was done on 14th day. FIG. 7B illustrates the mortality (%) plotted against TGR63 concentration and calculation of LD50. Twenty-five WT mice were segregated in five different groups (G1-5, N= 5 per group) and administered with varying doses of TGR63 (1.7, 5.5, 17.5 56.0 and 179.0 mg/kg body weight, respectively) through IP injection and their survival was monitored for 14 days. The serum stability and blood-brain barrier (BBB) crossing ability of TGR63 were assessed through matrix-assisted laser desorption ionization (MALDI) mass spectrometry analysis of blood and brain samples of vehicle and TGR63 treated mice. […] The partition coefficient (P), a valuable physical property was calculated to predict the BBB permeability. […] The calculated positive logP value predicts the possible BBB crossing ability for TGR63. […]

[1] = MALDI mass analysis of blood serum after administration; assay type: in vivo; conditions: WT mice, 24 h after administration
Description: as §1

[2] = MALDI mass analysis of brain lysate (BBB crossing); assay type: in vivo; conditions: WT mice, brains collected after 1 h
Description: as §1

APP/PS1 and WT mice = assay: Morris water maze (MWM) test; assay type: in vivo
Description: The spatial and episodic memory formation under AD conditions were investigated through spatial learning and memory development tasks in MWM test. MWM test was performed in a water pool (radius: 70 cm) and experimental mice were trained four times in a day to find a hidden platform, which was removed in probe trial to assess the spatial memory. The latency time to reach the hidden platform during the training period was recorded to determine spatial learning (FIG. 16H). […] In the probe trial, AD vehicle cohort spent most of the time (~87% of total time) in other quadrants (without platform), while other cohorts (WT vehicle, WT TGR63 and AD TGR63) spent only ~67%, 58% and 66% of total time in without platform quadrants, respectively. The AD vehicle cohort spent minimum time (~13% of total time) in target quadrant (with platform) compared to WT vehicle cohort (~33% of total time). […] Remarkably, AD TGR63 cohort crossed the platform region ~4 times, which is greater than the AD vehicle cohort.

PC12 cells = assay: Rescue of PC12 cells from Aβ42 toxicity (MTT cell viability assay); conditions: PC12 cells, Aβ42 20 µM + compound 40 µM, 24 h; Aβ42 alone 54%, untreated 100%
Description: A 96-well plate was used to culture the cells (15,000 per well) with RPMI media (10% fetal bovine serum (FBS), 5% horse serum (HS,), and 1% pen-strep (PS)) at 37° C. temperature in a 5% CO2 atmosphere. Then the media was exchanged with low serum (2% FBS) media and monomeric Aβ42 was added in the absence and presence of NMI compounds and incubated for 24 h.
The structure-activity relationship (SAR) of NMI compounds towards rescuing PC12 cells from Aβ toxicity was investigated. […] Each experiment was repeated three times (n = 3), and error bars represent the standard deviation (SD).
An Alzheimer’s disease-like environment was mimicked by exposing the cultured PC12 cells to 20 µM of Aβ42 fibrils, which formed cytotoxic aggregation species in the growth media.

T1 sequence (P05067 672-713 limits assumed): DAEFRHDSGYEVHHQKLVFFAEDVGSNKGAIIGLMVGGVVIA

Question: With `CN(C)c1ccc(C#Cc2ccc3c4c(cccc24)C(=O)N(CC[N+](C)(C)C)C3=O)cc1` [TGR63, 2-(6-((4-(dimethylamino)phenyl)ethynyl)-1,3-dioxo-1H-benzo[de]isoquinolin-2(3H)-yl)-N,N,N-trimethylethan-1-aminium] as the compound, how does the “intertwined structure of Aβ42 fibrils (TEM)” value (Aβ42 fibrils) read?
Answer: disrupted

Question: What about the “decrease in the formation of α-Syn aggregates” value (α-Syn; α-Syn:inhibitor 1:1, α-Syn 100 µM) of the same compound?
Answer: ~ 54%

Question: And the “α-Syn aggregation decreased to” value (α-Syn; α-Syn:inhibitor 1:2, α-Syn 100 µM)?
Answer: 65%

Question: What about the “α-Syn aggregation decreased to” value (α-Syn; α-Syn:inhibitor 1:5, α-Syn 100 µM) of the same compound?
Answer: 93%

Question: What about the LD50 (WT mice) of the same compound?
Answer: ~ 157.9 mg/kg body weight

Question: And the “presence in blood (MALDI)” value [1]?
Answer: confirmed the presence of TGR63 in blood after 24 h of administration

Question: And the “BBB crossing ability (MALDI of brain lysate)” value [2]?
Answer: confirmed BBB crossing ability of TGR63

Question: What about the “exploration in target quadrant relative to AD vehicle cohort” value (APP/PS1 and WT mice; AD TGR63 cohort, probe trial) of the same compound?
Answer: < 20%

Question: What about the “spatial memory formation (latency to hidden platform during training)” value (APP/PS1 and WT mice; AD TGR63 cohort, training days) of the same compound?
Answer: significant improvement in spatial memory formation compared to AD vehicle cohort

Question: What about the “platform region crossings, probe trial” value (APP/PS1 and WT mice; AD TGR63 cohort, AD vehicle ~1 time, WT vehicle ~4 times) of the same compound?
Answer: ~ 4 times

Question: What about the “exploration in target quadrant, probe trial” value (APP/PS1 and WT mice; AD TGR63 cohort, AD vehicle ~13%) of the same compound?
Answer: ~ 34 % of total time

Question: And the “time in without platform quadrants, probe trial” value (APP/PS1 and WT mice; AD TGR63 cohort, AD vehicle ~87%)?
Answer: ~66 % of total time

Question: And the “exploration in target quadrant, probe trial” value (APP/PS1 and WT mice; WT TGR63 cohort, WT vehicle ~33%)?
Answer: < 35 % of total time

Question: And the “time in without platform quadrants, probe trial” value (APP/PS1 and WT mice; WT TGR63 cohort, WT vehicle ~67%)?
Answer: ~58 % of total time

Question: What about the cell viability (PC12 cells) of the same compound?
Answer: 80%
